“Also recorded” adds a separate entry of the source.

Details of data set [1]: method as in PMID 34299505. The following applies: whatever the administered doses; cited from earlier work.
Another data set concerns the target T1, HER2 (pY1248) in SKBR3 (Homo sapiens, UniProt P04626).
T1 construct: host or cells: SKBR3
In words: HER2 activation (pY1248-HER2) in SKBR3 cells, western/dot blot. It is filed as cell-based. More on the design: Inhibition of HER2 activation / HER2 inhibition, %: concentration or dose not given beside the values.

Details of data set [2]: method as in PMID 11546910. To be noted: after intravenous injection; cited from earlier work.
Data set [3] addresses T2, JMHER2 (peptide derived from the cytosolic juxtamembrane sequence of HER2) (Homo sapiens, UniProt P04626).
T2 construct: purchased Proteogenix
The data set can be described thus: Surface plasmon resonance binding to immobilized HER2 juxtamembrane peptide. The following applies: analyte 5 or 10 μM, 60 s injection. As to the method:
Interaction was performed on a BIAcore T200 instrument BIAcore (Cytiva Life Sciences, Marlborough, MA, USA); GE Healthcare (Little Chalfont, UK). […] Ebselen or ebselen oxide was used as an analyte and injected at 5 or 10 μM at a flow rate of 25 μL·min^−1 for 60 s.
A general note: In SPR one partner is held on a chip, and binding of the other changes the refractive index at the surface.

The subject of data set [4] is main protease of SARS‐CoV‐2. More on the design: method as in PMID 33120196. To be noted: cited from earlier work.
The target in data set [5] is T3, JMHER2/FERME interaction (biot-JMHER2 peptide and GST-FERME, N-terminal FERM domain of ezrin) (Homo sapiens, UniProt P04626).
T3 construct: purchased Proteogenix
In words: AlphaScreen competition of HER2 juxtamembrane peptide / ezrin FERM domain interaction. It is filed as binding. To be noted: AlphaScreen, 20 h. Here is the method:
Biotinylated peptide derived from HER2 cytosolic juxtamembrane region (JMHER2, […] ) has been synthesized by Proteogenix (Schiltigheim, France). The binding reaction was described previously. Briefly, white 384‐well Optiplates (PerkinElmer, Whalham, MA, USA) were used to prepare GST‐FERME and biotinylated peptide in a binding buffer (PBS, pH 7.4, 5 mM MgCl2, and 0.02% CHAPS). GST‐FERME was incubated with biotinylated‐HER2 for 30 min at room temperature. AlphaScreen® Streptavidin Donor beads (20 μg·mL^−1) and Glutathione AlphaLISA® Acceptor Beads (20 μg·mL^−1) were added to the wells for overnight incubation in the dark and at room temperature. Light signal was detected with the EnVision® multilabel plate reader (PerkinElmer).
Ebselen came out as an interesting hit. Ebselen is a synthetic organoselenium compound with the anti‐inflammatory and antioxidant property that has been evaluated in clinical trials for ischemic stroke and acute hearing loss. However, in vivo, ebselen rapidly reacts with peroxynitrite to form ebselen oxide. […] In addition, using surface plasmon resonance (SPR), we confirmed that both compounds could directly bind to JMHER2 (Fig. 1E,F). […] The slight decrease in HER2 expression was not significant. To examine whether HER2 inhibition by ebselen oxide was dependent on JMHER2/FERME interaction, we transfected HBMEC cells with a previously described glycoprotein D‐tagged HER2 form mutated on the critical amino acids involved in ERM binding (gD‐HER2‐EBM*).

Details of data set [6]: method as in PMID 23299882. To be noted: cited from earlier work.

T1 sequence (P04626 23-1255): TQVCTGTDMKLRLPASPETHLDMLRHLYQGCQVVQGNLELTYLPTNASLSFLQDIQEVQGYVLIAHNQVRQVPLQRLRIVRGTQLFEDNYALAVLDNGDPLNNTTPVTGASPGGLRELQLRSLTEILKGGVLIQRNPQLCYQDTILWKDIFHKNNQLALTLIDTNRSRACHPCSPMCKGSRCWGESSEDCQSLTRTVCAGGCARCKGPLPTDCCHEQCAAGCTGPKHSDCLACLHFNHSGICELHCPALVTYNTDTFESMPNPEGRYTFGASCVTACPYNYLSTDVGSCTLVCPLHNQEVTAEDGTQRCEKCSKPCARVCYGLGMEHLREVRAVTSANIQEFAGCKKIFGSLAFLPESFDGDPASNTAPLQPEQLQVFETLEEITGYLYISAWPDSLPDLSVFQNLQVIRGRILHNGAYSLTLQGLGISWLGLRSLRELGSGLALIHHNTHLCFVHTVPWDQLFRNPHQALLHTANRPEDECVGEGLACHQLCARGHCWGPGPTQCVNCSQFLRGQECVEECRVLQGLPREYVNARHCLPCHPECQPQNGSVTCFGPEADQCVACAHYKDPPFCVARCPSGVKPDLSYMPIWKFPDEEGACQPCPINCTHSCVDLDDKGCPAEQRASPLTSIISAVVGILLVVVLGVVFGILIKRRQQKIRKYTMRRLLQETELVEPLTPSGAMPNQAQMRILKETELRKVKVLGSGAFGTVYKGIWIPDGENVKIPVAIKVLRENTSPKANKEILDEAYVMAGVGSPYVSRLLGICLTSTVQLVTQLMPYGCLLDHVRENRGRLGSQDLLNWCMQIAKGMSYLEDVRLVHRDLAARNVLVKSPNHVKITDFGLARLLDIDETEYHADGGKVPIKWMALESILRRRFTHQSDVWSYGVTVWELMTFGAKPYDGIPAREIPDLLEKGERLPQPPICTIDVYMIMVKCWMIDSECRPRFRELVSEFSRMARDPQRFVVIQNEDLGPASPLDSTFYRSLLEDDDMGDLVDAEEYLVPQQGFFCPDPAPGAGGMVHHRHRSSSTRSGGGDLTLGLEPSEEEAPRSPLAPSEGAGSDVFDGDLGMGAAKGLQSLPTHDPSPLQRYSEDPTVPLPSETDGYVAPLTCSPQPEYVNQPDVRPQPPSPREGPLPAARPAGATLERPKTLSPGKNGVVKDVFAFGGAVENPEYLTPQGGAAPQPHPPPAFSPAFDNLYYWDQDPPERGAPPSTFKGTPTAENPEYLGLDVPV

Take `O=c1c2ccccc2[se]n1-c1ccccc1` [Ebselen]: in data set [1], the “Tolerability in vivo” value is “always well tolerated”. Besides, the “Inhibition of HER2 activation/activity” value at HER2 (pY1248) in SKBR3 (HER2+ breast cancer cells (SKBR3 in Fig. S1)) is “poorly inhibited; also recorded: did not inhibit”. Moreover, on HER2 (pY1248) in SKBR3 (Table 1, HER2+ breast cancer cells (ebselen oxide value equals SKBR3 48 h)), the “HER2 inhibition, %” value is on record as 14.4%. Besides, at HER2 (pY1248) in SKBR3 (Table 1, HER2+ breast cancer cells (ebselen oxide value equals SKBR3 48 h), read-out: EC50, μM (HER2 inhibition)), the EC50 was determined as 51.3 µM. In data set [2], the Half-life was 1 to 3 h and the “Time to maximum serum concentration” value is reported as 1 h. For the same compound, the “Direct binding to JMHER2 (SPR)” value in data set [3] is “directly bind”. Moreover, in data set [4], the “Inhibition of the main protease of SARS-CoV-2” value is reported as “highly active”. Also, the IC50 in data set [5] amounted to 44 nM. Moreover, the 50% effective concentration (EC50) in data set [5] (read-out: EC50, μM (inhibition of HER2-FERME interaction)) turned out to be 0.044 µM. Moreover, the “Blood–brain barrier permeation” value in data set [6] is reported as “blood–brain barrier permeant”.

As a reminder, the EC50 is the concentration needed to bring the measured effect to its halfway point. What is called IC50 is the midpoint of a concentration-inhibition curve.
